According to patent US20020006399A1, “Therapeutic uses of hormonal manipulation using combinations of various agents to treat atherosclerosis” (priority 1999, published 2002):
Structures can show the parent of a compound that is named as a salt.

Columns and labels:
Format in all cases: in vivo
prostate cancer patients = test: Retrospective chart review: cardiac events in prostate cancer patients treated with LHRH inhibitors vs controls; details: for Events/Year: cardiac events per subject year, Total Control .0338; for observed difference between the proportions vs Total Control: events/year, treated group vs Total Control (Groups 1 + 4); for Cardiac Events: heart attack, coronary artery bypass or angioplasty, on drug at least one year, Total Control 32 events over 948 subject years; for heart attacks compared with controls: treated patients vs controls
Method: Another retrospective study was performed which compared the rates of patient reported heart attack in several groups 1-control group of males entering the urology office for any routine complaint. 2-a group of prostate cancer patients treated with Leuprolide acetate, a LHRH inhibitor. 3-a group of prostate cancer patients treated with Goserelin acetate (Zoladex), a LHRH inhibitor. 4-a group of prostate cancer patients not treated with hormonal manipulation (neither Leuprolide or Goserelin). 5-all patients on LHRH inhibitors (group 2+group 3). The patients on either Leuprolide or Goserelin were treated with the recommended doses indicated for the treatment of prostatic carcinoma, at either one or three month intervals depending on the preparation used. Leuprolide was dosed at 7.5 mg monthly (single intramuscular injection) or at 22.5 mg at 3 month intervals (single intramuscular injection). Goserelin was dosed at 3.6 mg monthly or at a dose of 10.8 mg at 3 month intervals (subcutaneous injection). The various groups of office patients were evaluated by chart […]. In groups 2 and 3 only those on drug for at least one year were considered. Cardiac event is defined either the history of a heart attack or occurrence of coronary artery bypass or angioplasty. In control groups only events occurring in the 3 years prior to the questionnaire are charted.

[1] = system: patients diagnosed with benign prostatic hypertrophy; test: First retrospective study: cardiac events (cardiac bypass or heart attack) in BPH patients on finasteride vs alpha-blocker control; details: finasteride treated group of 22 subjects, 61 subject-years, on drug at least a year, 5 mg oral tablet a day; control 7 events over 288 subject-years
Method: Finasteride was being administered at a dosage of a single oral 5 mg tablet a day. This is the same tablet used in treatment of BPH as disclosed in U.S. Pat. No. 5,175,155 and such dosage applies in the present invention. However, use of a 2 mg or 10 mg oral tablet is contemplated. Two studies were undertaken to determine whether finasteride was, in fact, effective in lessening the incidence of heart disease and other complications of atherosclerosis. The result of the first study is as follows; A list of patients diagnosed with benign prostatic hypertrophy in late 1992 and 1993 was located. Treatment had been initiated with either finasteride or another oral agent of a different class (alpha-blocker). Patients were then contacted and an interval history was taken. In the control group of 45 subjects, 7 events (either cardiac bypass or heart attack) occurred in 6 subjects over 288 subject-years. In the finasteride treated group of 22 subjects there were no events over 61 subject-years. […] (95% Cl equal to 0.65% to 4.2%).

patients of the practice = test: Second study: questionnaire on cardiac events in patients of the practice treated with finasteride
Method: Finasteride was being administered at a dosage of a single oral 5 mg tablet a day. This is the same tablet used in treatment of BPH as disclosed in U.S. Pat. No. 5,175,155 and such dosage applies in the present invention. However, use of a 2 mg or 10 mg oral tablet is contemplated. Two studies were undertaken to determine whether finasteride was, in fact, effective in lessening the incidence of heart disease and other complications of atherosclerosis. In the second study patients of the practice were given a questionnaire. Various patients had been treated with finasteride for varying lengths of time. Only those on the drug for at least one year were considered. The average time on finasteride was 3 years. The number of cardiac events occurring in the patients taking finasteride was only 4 events over 242 patient-years. (1.6%/yr.) In the control group 26 events occurred in the 3 years prior over 732 patient-years. (3.5%/yr.) The 45% decrease observed in cardiac events is believed to be significant. (90% Cl equal to 1.4% to 3.7%).

[2] = system: patients treated for benign prostatic hypertrophy; test: Clinical observation of patients given finasteride for benign prostatic hypertrophy; details: finasteride single oral 5 mg tablet a day for BPH
Method: Finasteride was being administered at a dosage of a single oral 5 mg tablet a day. This is the same tablet used in treatment of BPH as disclosed in U.S. Pat. No. 5,175,155 and such dosage applies in the present invention. However, use of a 2 mg or 10 mg oral tablet is contemplated.

| Structure (SMILES) | Events/Year (prostate cancer patients) | observed difference between the proportions vs Total Control (prostate cancer patients) | Cardiac Events (prostate cancer patients) | heart attacks compared with controls (prostate cancer patients) | events (either cardiac bypass or heart attack) [1] | cardiac event rate (patients of the practice; 4 events over 242 patient-years, control 3.5%/yr) [%/yr] | decrease observed in cardiac events (patients of the practice; finasteride vs control group) [%] | number of cardiac events (patients of the practice; over 242 patient-years, on drug at least one year, average 3 years, control 26 events over 732 patient-years) [events] | incidence of atherosclerosis and heart disease (observation) [2] |
| --- | --- | --- | --- | --- | --- | --- | --- | --- | --- |
| CCNC(=O)[C@@H]1CCCN1C(=O)[C@H](CCCNC(=N)N)NC(=O)[C@H](CC(C)C)NC(=O)[C@@H](CC(C)C)NC(=O)[C@H](Cc1ccc(O)cc1)NC(=O)[C@H](CO)NC(=O)[C@H](Cc1c[nH]c2ccccc12)NC(=O)[C@H](Cc1c[nH]cn1)NC(=O)[C@@H]1CCC(=O)N1 [Lupron, 5-oxo-L-prolyl-L-histidyl-L-tryptophyl-L-seryl-L-tyrosyl-D-leucyl-L-leucyl-L-arginyl-N-ethyl-L-prolinamide acetate (salt)] | .00847 | 0.253 | 1 | fewer heart attacks than controls |  |  |  |  |  |
| CC(C)C[C@H](NC(=O)[C@@H](COC(C)(C)C)NC(=O)[C@H](Cc1ccc(O)cc1)NC(=O)[C@H](CO)NC(=O)[C@H](Cc1c[nH]c2ccccc12)NC(=O)[C@H](Cc1cnc[nH]1)NC(=O)[C@@H]1CCC(=O)N1)C(=O)N[C@@H](CCCNC(=N)N)C(=O)N1CCC[C@H]1C(=O)NNC(N)=O [Zoladex, pyro-Glu-His-Trp-Ser-Tyr-D-Ser(Bu)-Leu-Arg-Pro-Azgly-NH2 acetate] | .0161 | 0.0177 | 1 | fewer heart attacks than controls |  |  |  |  |  |
| CC(C)(C)NC(=O)[C@H]1CC[C@H]2[C@@H]3CC[C@H]4NC(=O)C=C[C@]4(C)[C@H]3CC[C@]12C [finasteride, 4-azaandrost-1-ene-17-carboxamide, N-(1,1-dimethylethyl)-3oxo-(5alpha 17beta)-] |  |  |  |  | no events | 1.6 | 45 | 4 | lower incidence of atherosclerosis and heart disease |
